These results are taken from ChEMBL document CHEMBL1201862, “PubChem BioAssay data set” (2004).

Each structure is given as a SMILES string.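 In this assay, cells in 96-well plates receive the compound at five concentrations for 48 hours. Endpoints are linearly interpolated between the surrounding concentrations. At the GI50, growth is halved.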 The source made the active and inactive calls. Cut-off read from the data, not from the text of the source: active = GI50 up to about 1.1 µM and inactive = higher.

Among the test systems are A549; TK-10; SNB-19; K562; T47D; UO-31; SF-295; MOLT-4; SK-MEL-5; IGROV-1; MCF7; KM12; HCT-15; HT-29; NCI/ADR-RES; SNB-75; NCI-H522; SN12C; SK-OV-3.
Holding throughout (assay): growth of human tumour cells (NCI), 48 h

Regarding `CC(=O)c1ccc(N2CCN(C3=C(Cl)C(=O)c4c(O)ccc(O)c4C3=O)CC2)cc1`, the GI50 was 17.5 µM (inactive) in the assay on A549; 5.14 µM (inactive) with TK-10; 20.7 µM (inactive) with SNB-19; 2.09 µM (inactive) in the assay on K562; 2.91 µM (inactive) in the assay with T47D; 10.9 µM (inactive) with UO-31. The GI50 with SF-295 is 18.8 µM (inactive); in the assay with MOLT-4 it was 1.68 µM (inactive); in the assay with SK-MEL-5 it was 5.73 µM (inactive); in the assay on IGROV-1 it was 4 µM (inactive); in the assay on MCF7 it was 1.49 µM (inactive); with KM12, 10 µM (inactive). Besides, the GI50 in the assay with HCT-15 is 8.79 µM; with HT-29, 2.12 µM (inactive); in the assay on NCI/ADR-RES, 9.1 µM (inactive); in the assay on SNB-75 it was 12.7 µM (inactive).
`O=C1CCSSCCC(=O)Nc2ccccc2N1`: the GI50 in the assay with A549 was > 100 µM (inactive); in the assay with TK-10 it was > 100 µM (inactive); in the assay with SNB-19 it was > 100 µM (inactive); in the assay on K562, 53.5 µM (inactive); in the assay on T47D it was > 100 µM (inactive); in the assay on UO-31, > 100 µM (inactive). In addition, the GI50 is > 100 µM (inactive) with NCI-H522; > 100 µM (inactive) with SF-295; > 100 µM (inactive) in the assay on SN12C; 34 µM (inactive) in the assay with MOLT-4; > 100 µM (inactive) in the assay with SK-MEL-5; > 100 µM (inactive) in the assay with IGROV-1. In addition, the GI50 was > 100 µM (inactive) in the assay on KM12; greater than 100 µM in the assay with HCT-15; > 100 µM (inactive) in the assay with HT-29; > 100 µM (inactive) with SK-OV-3; > 100 µM (inactive) in the assay with NCI/ADR-RES.
As to `CO[C@H](c1ccccc1)[C@H](O)[C@](O)(c1ccccc1)P(=O)(OC)OC`, the GI50 in the assay on A549, with TK-10, with SNB-19, in the assay on K562, in the assay on T47D and with UO-31 was > 100 µM (inactive) each time. For the same compound, the GI50 in the assay with NCI-H522, with SF-295, in the assay with SN12C, in the assay on MOLT-4, in the assay with SK-MEL-5 and in the assay on IGROV-1 was > 100 µM (inactive) each time. The GI50 in the assay on KM12 was > 100 µM (inactive); with HCT-15, greater than 100 µM; in the assay on HT-29 it was > 100 µM (inactive); with SK-OV-3, > 100 µM (inactive); in the assay with NCI/ADR-RES, > 100 µM (inactive); in the assay on SNB-75 it was > 100 µM (inactive).
With `CCCCN(CCCC)C(=O)/C(CC(=O)c1cccc2ccccc12)=N\NC(=O)c1cc2ccccc2cc1O`, the GI50 in the assay on A549 is 21.1 µM (inactive); in the assay on TK-10 it was 40.1 µM (inactive); with SNB-19 it was 26.1 µM (inactive); in the assay on UO-31, 10.1 µM (inactive); with SF-295 it was 18.3 µM (inactive); with SN12C, 18.5 µM (inactive). Further, the GI50 in the assay with MOLT-4 was 7.83 µM (inactive); in the assay on SK-MEL-5 it was 13.5 µM (inactive); in the assay on IGROV-1, 15.3 µM (inactive); in the assay with KM12, 24.8 µM (inactive); in the assay on HT-29, 23.8 µM (inactive); with SNB-75 it was 13.4 µM (inactive).
Consider `C=CCC1(CN(C)C)CC/C(=C\c2ccc3c(c2)OCO3)C1=O` (stereo not given), for which the GI50 is 74.1 µM (inactive) in the assay on A549; > 100 µM (inactive) with TK-10; > 100 µM (inactive) in the assay on SNB-19; 32.7 µM (inactive) in the assay with K562; 45 µM (inactive) in the assay with UO-31; 17.9 µM (inactive) in the assay on NCI-H522. In addition, the GI50 is > 100 µM (inactive) in the assay with SF-295; > 100 µM (inactive) in the assay with SN12C; 27.3 µM (inactive) in the assay with MOLT-4; 22.7 µM (inactive) in the assay with SK-MEL-5; 60.5 µM (inactive) in the assay on IGROV-1; 42.3 µM (inactive) in the assay on KM12. Besides, the GI50 was 39.4 µM in the assay on HCT-15, 36 µM (inactive) in the assay on HT-29 and > 100 µM (inactive) in the assay with SNB-75.
Take `Cn1ccnc1CC(C)(O)c1ccccc1` (stereo not given): the GI50 in the assay with A549, in the assay with TK-10, in the assay on SNB-19, in the assay on K562, with UO-31 and with NCI-H522 was > 100 µM (inactive) each time. Besides, the GI50 in the assay on SF-295, in the assay with SN12C, with SK-MEL-5, with IGROV-1, with MCF7 and in the assay on KM12 was > 100 µM (inactive) throughout. For the same compound, the GI50 with HCT-15 was greater than 100 µM; in the assay on HT-29, > 100 µM (inactive); in the assay with SK-OV-3, > 100 µM (inactive); with NCI/ADR-RES it was > 100 µM (inactive); with SNB-75, > 100 µM (inactive).
Regarding `O=c1[nH]c(=O)n(CCOc2ccc(Cl)cc2)cc1Nc1ccccc1`, the GI50 is > 100 µM (inactive) in the assay with A549; > 100 µM (inactive) with SNB-19; > 100 µM (inactive) with K562; 58.5 µM (inactive) in the assay on UO-31; 12.4 µM (inactive) in the assay with SF-295; > 100 µM (inactive) in the assay with SN12C. In addition, the GI50 was > 100 µM (inactive) in the assay with MOLT-4; > 100 µM (inactive) in the assay on SK-MEL-5; > 100 µM (inactive) with IGROV-1; > 100 µM (inactive) with MCF7; > 100 µM (inactive) in the assay on KM12; greater than 100 µM in the assay with HCT-15. The GI50 with HT-29 and with NCI/ADR-RES was > 100 µM (inactive) in each case.
With `CNC(=O)c1nc[nH]c1/N=N/N(C)N`, the GI50 in the assay with A549, with TK-10, with K562, in the assay with T47D, with UO-31 and in the assay on NCI-H522 was > 100 µM (inactive) in each case. The GI50 was > 100 µM (inactive) with SF-295; > 100 µM (inactive) in the assay on SN12C; > 100 µM (inactive) in the assay with MOLT-4; 49.9 µM (inactive) in the assay with SK-MEL-5; > 100 µM (inactive) in the assay with IGROV-1; 40.5 µM (inactive) in the assay with KM12. In addition, the GI50 in the assay on HCT-15 was greater than 100 µM; with HT-29, > 100 µM (inactive); in the assay with SK-OV-3, > 100 µM (inactive); with NCI/ADR-RES, > 100 µM (inactive); with SNB-75, 80.9 µM (inactive).
As to `CC(C)(C)/C(O)=C\c1nc2ccc(C(F)(F)F)cc2[nH]c1=O`, the GI50 with A549, in the assay with TK-10, in the assay on SNB-19, in the assay with K562, in the assay with T47D and with UO-31 was > 100 µM (inactive) in each case. The GI50 in the assay on NCI-H522, in the assay with SF-295, with SN12C, in the assay on MOLT-4, with SK-MEL-5 and in the assay on IGROV-1 was > 100 µM (inactive) in each case. Moreover, the GI50 with KM12 was > 100 µM (inactive); with HCT-15 it was greater than 100 µM; in the assay on HT-29 it was > 100 µM (inactive); in the assay with SK-OV-3 it was > 100 µM (inactive); with NCI/ADR-RES, > 100 µM (inactive); in the assay with SNB-75, > 100 µM (inactive).
With `CC(C)(C)C(=O)/C=C/c1cccc(Oc2ccccc2)c1`, the GI50 in the assay on A549 is 21.1 µM (inactive); with TK-10, > 10 µM (inactive); in the assay on SNB-19 it was 15.5 µM (inactive); in the assay with K562 it was 5.93 µM (inactive); with UO-31 it was 14.4 µM (inactive); with NCI-H522, 15.3 µM (inactive). The GI50 in the assay on SF-295 is 11.8 µM (inactive); in the assay with SN12C, 13.2 µM (inactive); in the assay with MOLT-4 it was 14.6 µM (inactive); with SK-MEL-5 it was 14.4 µM (inactive); in the assay on IGROV-1 it was 28.2 µM (inactive); in the assay on KM12, 11.6 µM (inactive). Further, the GI50 in the assay on HCT-15 is 19.4 µM; in the assay on HT-29 it was 9.12 µM (inactive); with SK-OV-3, 41 µM (inactive); in the assay on SNB-75, 12.4 µM (inactive).
On to `O=C1C[C@@H](c2ccccc2)O[C@@H](c2ccccc2)C1`, for which the GI50 in the assay on A549, with SNB-19, in the assay with K562, in the assay with T47D, with UO-31 and in the assay on SF-295 was > 100 µM (inactive) in each case. For the same compound, the GI50 in the assay on SN12C was 84.7 µM (inactive); in the assay with MOLT-4 it was > 100 µM (inactive); in the assay on SK-MEL-5, > 100 µM (inactive); in the assay on IGROV-1 it was > 100 µM (inactive); in the assay on MCF7 it was > 100 µM (inactive); with KM12 it was > 100 µM (inactive). The GI50 was greater than 100 µM in the assay on HCT-15; > 100 µM (inactive) with HT-29; > 100 µM (inactive) with SK-OV-3; > 100 µM (inactive) in the assay with NCI/ADR-RES; > 100 µM (inactive) in the assay with SNB-75.
In the case of `CCCc1c(OC)c(=O)c2c(O)cc(OC)c3c4c(OC)cc(O)c5c(=O)c(OC)c(CCC)c(c1c23)c54`, the GI50 is 1.32 µM (inactive) in the assay on A549; 44.7 µM (inactive) in the assay on TK-10; 4.32 µM (inactive) in the assay on SNB-19; 2.33 µM (inactive) with K562; 2.62 µM (inactive) in the assay on UO-31; 1.53 µM (inactive) in the assay with NCI-H522. Besides, the GI50 was 9.62 µM (inactive) in the assay with SF-295; 3.15 µM (inactive) in the assay on SN12C; 1.6 µM (inactive) with MOLT-4; 3.29 µM (inactive) with SK-MEL-5; 2.98 µM (inactive) in the assay with IGROV-1; 3.43 µM (inactive) in the assay on MCF7. Moreover, the GI50 in the assay on KM12 was 8.57 µM (inactive); in the assay with HCT-15, 2.9 µM; in the assay on HT-29, 4.79 µM (inactive); with SK-OV-3, 9.77 µM (inactive); in the assay with NCI/ADR-RES, 5.26 µM (inactive); in the assay on SNB-75, 1.59 µM (inactive).
